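Growth conditions: 96-well plates. Treatment: test compound, 48 hours, 5 concentrations. Analysis: linear interpolation between bracketing concentrations; unreached endpoints set to highest concentration. TGI: concentration producing complete growth inhibition.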 Where a SMILES comes first, the peptide text is derived from it. [ ]: non-standard residue; d: D form. The star is where a group is joined. Bn2Val = CC(C)[C@@H](C(=O)*)N(Cc1ccccc1)Cc1ccccc1; NHPiperonyl = c1cc2c(cc1CN*)OCO2; NMeV = CN[C@H](C(=O)O)C(C)C; dNMeA = CN[C@H](C)C(=O)O
How the values were obtained:
Assay in all cases: growth of human tumour cells (NCI), 48 h
CAKI-1 renal = tested on: CAKI-1 renal
SF-268 CNS = tested on: SF-268 CNS
NCI-H226 lung = tested on: NCI-H226 lung
NCI-H522 lung = tested on: NCI-H522 lung
HT29 colon = tested on: HT29 colon
786-0 renal = tested on: 786-0 renal
PC-3 prostate = tested on: PC-3 prostate
HCT-116 colon = tested on: HCT-116 colon
NCI-H23 lung = tested on: NCI-H23 lung
K-562 leukemia = tested on: K-562 leukemia
UACC-62 melanoma = tested on: UACC-62 melanoma
U251 CNS = tested on: U251 CNS
HCT-15 colon = tested on: HCT-15 colon
M14 melanoma = tested on: M14 melanoma
MDA-MB-435 = tested on: MDA-MB-435
OVCAR-5 ovarian = tested on: OVCAR-5 ovarian
RPMI-8226 leukemia = tested on: RPMI-8226 leukemia
MALME-3M melanoma = tested on: MALME-3M melanoma
HOP-62 NSCLC = tested on: HOP-62 NSCLC
BT-549 breast = tested on: BT-549 breast

Row | Structure (SMILES) | TGI (CAKI-1 renal) [µM] | TGI (SF-268 CNS) [µM] | TGI (NCI-H226 lung) [µM] | TGI (NCI-H522 lung) [µM] | TGI (HT29 colon) [µM] | TGI (786-0 renal) [µM] | TGI (PC-3 prostate) [µM] | TGI (HCT-116 colon) [µM] | TGI (NCI-H23 lung) [µM] | TGI (K-562 leukemia) [µM] | TGI (UACC-62 melanoma) [µM] | TGI (U251 CNS) [µM] | TGI (HCT-15 colon) [µM] | TGI (M14 melanoma) [µM] | TGI (MDA-MB-435) [µM] | TGI (OVCAR-5 ovarian) [µM] | TGI (RPMI-8226 leukemia) [µM] | TGI (MALME-3M melanoma) [µM] | TGI (HOP-62 NSCLC) [µM] | TGI (BT-549 breast) [µM]
1 | C[C@]12CCC(=O)C=C1CC[C@@H]1[C@@H]2CC[C@]2(C)C(=O)/C(=C/c3ccncc3)C[C@@H]12 | 43.7 | 45 | 34.6 | 33.8 | 32.7 | 31.3 | 25.6 | 23 | 56.2 | > 100 | 25.6 | 25.7 | 48.8 | 29.4 | 44.9 | 34.2 | 35.2 | 33.8 | 32.5 | 42.5
2 | CC(=O)NC1C(O)C(O)C(CO)OC1n1nc(SCc2ccccc2)c(=O)[nH]c1=O (stereo not given) | > 100 | > 100 | > 100 | > 100 | > 100 | > 100 | > 100 | > 100 | > 100 | > 100 | > 100 | > 100 | > 100 | > 100 | > 100 | > 100 | > 100 | > 100 | > 100 | > 100
3 | COc1ccc2c(c1)OCC1=C2Oc2ccccc2C1 | > 100 | > 100 | > 100 | 70.2 | 90 | > 100 | > 100 | > 100 | > 100 | > 100 | > 100 | > 100 | > 100 | > 100 | 84.2 | 88.8 | > 100 | > 100 | > 100 | 71.5
4 | CC(=O)O[C@H]1C[C@H]2[C@@H]([C@H](OC(C)=O)C[C@@H]3CC4(CC[C@@]32C)OOC2(CCCCC2)OO4)[C@@H]2CC[C@H]([C@H](C)CCC(N)=O)[C@@]12C | 2.14 | 3.47 | 6.8 | 1.48 | 14.3 | 3.52 | 4.15 | 11.2 | 2.83 | 6.02 | 6.31 | 3.15 | 5.31 | 9.67 | 3.27 | 6.65 | 2.7 | 6.82 | 2.11 | 4.86
5 | CC(=O)N(C(=O)CC(=O)NNCc1ccccc1Cl)c1ccc(Cl)cc1 | > 10 | > 10 | > 10 | > 10 | > 10 | > 10 | > 10 | > 10 | > 10 | > 10 | > 10 | > 10 | > 10 | > 10 | > 10 | > 10 | > 10 | > 10 | > 10 | > 10
6 | CC(C)[C@H](NC(=O)[C@H](C(C)C)N(Cc1ccccc1)Cc1ccccc1)C(=O)N(C)[C@H](C(=O)N1CCC[C@H]1C(=O)N(C)[C@H](C)C(=O)NCc1ccc2c(c1)OCO2)C(C)C (Bn2Val-V[NMeV]P[dNMeA]-NHPiperonyl) | > 100 | > 74.5 | > 100 | > 100 | 9.04 | > 83.2 | 89.9 | 23.2 | > 100 | 54 | > 74.2 | 43 | > 100 | > 100 | > 96.4 | 23.9 | 6.2 | > 65.3 | > 100 | 57.5
7 | Cc1nnc(N2C(=O)C(=Cc3ccc(Cl)cc3)N=C2c2ccc(Cl)cc2)nc1/C=C\c1ccc(N(C)C)cc1 | > 100 | > 100 | > 100 | > 100 | > 100 | > 100 | > 100 | > 100 | > 100 | > 100 | > 100 | > 100 | > 100 | > 100 | > 100 | > 100 | > 100 | > 100 | > 100 | > 100
8 | CCCCCCCCCCCCCCCCCCNc1ccn(C2OC(COP(=O)(O)OCC(COP(=O)(O)OCC3OC(n4cc(C)c(=O)[nH]c4=O)CC3N=[N+]=[N-])OCCCCCCCCCCCCCCCCCC)C(O)C2O)c(=O)n1 (stereo not given) | > 100 | > 100 | > 100 | 96.5 | > 100 | > 100 | > 100 | > 100 | > 100 | > 100 | > 100 | 27.8 | > 100 | > 100 | > 100 | > 100 | > 100 | > 100 | > 100 | > 100
9 | c1cc2c(cc1NC1=NCCO1)CCCC2 | > 88.1 | 25 | 11.4 | 18 | 7.28 | 16.7 | 15.5 | 16 | 16 | > 24.5 | 16.5 | 24.8 | 22.4 | 12.2 | 4.1 | 39.7 | 12 | 21.9 | 10.9 | 75.7
